Results from patent publication US12187721B2, “Protein tyrosine phosphatase inhibitors” (Array BioPharma Inc., priority 2018, dated 2025).
Where a name gives a salt, the structure may show the parent alone. Read-outs that look alike come from different tables or passages of the source.

Biological target: T1, full-length SHP2 (His6-tagged SHP2(2-527)) (Homo sapiens, UniProt Q06124)
T1 construct: His6-tagged SHP2(2-527); His6; made in house; host or cells: E. coli
Assay: SHP2 Enzymatic Assay (fluorescence intensity kinetic assay, DiFMUP hydrolysis)
Format: biochemical
Protocol: A fluorescence intensity kinetic assay was configured for full-length SHP2 that monitors the amount of 6,8-difluoro-7-hydroxy-4-methylcoumarin (“DiFMU”) formed upon hydrolysis of 6,8-difluoro-4-methylumbelliferyl phosphate (“DiFMUP”) by SHP2. Assay mixtures consisted of 25 mM K^+HEPES, pH 7.4, 0.01% Triton X-100, 1 mM DTT, 50 mM KCl, 100 μg/mL bovine γ-globulin, 50 μM DiFMUP, 1 μM SHP2 activating peptide (LN(pY)IDLDLV(dPEG8)LST(pY)ASINFQK-amide), 1 nM full-length SHP2 (His6-tagged SHP2(2-527), recombinantly expressed in E. coli and purified in-house) and 2% dimethylsulfoxide (“DMSO”) (from compound). […] The assay was run in 384-well, polystyrene, low-volume, non-treated, black microtiter plates (Costar 4511) in a final volume of 20 μL. Low control wells lacked enzyme. The assays were initiated by the addition of a mixture of SHP2 and the activating peptide, and following a 15 second mix on an orbital shaker, were read in kinetic mode for 15 minutes (30 seconds/cycle) at ambient temperature on a PerkinElmer EnVision microplate reader (λEx=355 nm, λEm=460 nm). Initial velocities (slopes of the tangents at t=0) were estimated from exponential fits to the slightly nonlinear progress curves and then were converted to percent of control (“POC”) using the following equation:
[formula] • Where: Xmax Average Uninhibited Controls • Xmin Average Background A 4-parameter logistic model was the fit to the POC data for each compound. From that fit, the IC50 was estimated and is defined as the concentration of compound at which the curve crosses 50 POC.
The reported IC50 in Table 1 may be from a single assay or the mean of multiple assays.

[1] = full-length SHP2 with 1 μM activating peptide, 50 μM DiFMUP, single assay or mean of multiple assays, read-out: Biological Example 1 IC50

T1 sequence (Q06124 2-527): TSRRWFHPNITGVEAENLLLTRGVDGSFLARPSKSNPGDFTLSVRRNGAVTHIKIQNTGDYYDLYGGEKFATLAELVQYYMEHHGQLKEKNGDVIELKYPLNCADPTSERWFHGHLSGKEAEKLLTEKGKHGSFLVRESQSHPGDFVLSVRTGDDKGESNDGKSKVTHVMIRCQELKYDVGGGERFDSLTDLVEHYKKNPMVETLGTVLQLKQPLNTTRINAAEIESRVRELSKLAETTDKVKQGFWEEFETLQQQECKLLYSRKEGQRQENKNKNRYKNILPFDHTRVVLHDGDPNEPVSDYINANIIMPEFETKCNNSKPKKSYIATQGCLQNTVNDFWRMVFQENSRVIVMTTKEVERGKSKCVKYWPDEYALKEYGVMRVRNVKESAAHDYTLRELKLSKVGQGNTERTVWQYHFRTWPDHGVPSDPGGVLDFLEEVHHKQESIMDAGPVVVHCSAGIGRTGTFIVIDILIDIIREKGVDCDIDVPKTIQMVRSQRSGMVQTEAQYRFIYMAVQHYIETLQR

Row | Compound | IC50 | IC50 [1]
1 | C[C@@H]1OCC2(CCN(c3ccc4nc(Sc5cccc(Cl)c5Cl)cnc4n3)CC2)[C@@H]1N [Example 5, (3S,4S)-8-(2-((2,3-dichlorophenyl)thio)pyrido[2,3-b]pyrazin-6-yl)-3-methyl-2-oxa-8-azaspiro[4,5]decan-4-amine] | 4000 nM | 
2 | Cc1ccc2c(n1)CC1(CCN(c3cnc4nc(Sc5ccnc(N)c5Cl)ccc4n3)CC1)[C@@H]2N [Example 114, (S)-1′-(6-((2-amino-3-chloropyridin-4-yl)thio)pyrido[2,3-b]pyrazin-2-yl)-2-methyl-5,7-dihydrospiro[cyclopenta[b]pyridine-6,4′-piperidin]-5-amine] |  | 40 nM
3 | CC1(N)CCN(c2cnc3nc(-c4cccc(Cl)c4Cl)ccc3n2)CC1 [Example 2, 1-(6-(2,3-dichlorophenyl)pyrido[2,3-b]pyrazin-2-yl)-4-methylpiperidin-4-amine] |  | 93 nM
4 | NCC1CCN(c2cnc3nc(-c4cccc(Cl)c4Cl)ccc3n2)C1 (centres unmarked) [Example 28, (1-(6-(2,3-dichlorophenyl)pyrido[2,3-b]pyrazin-2-yl)pyrrolidin-3-yl)methanamine] | 830 nM | 
5 | COc1c(Sc2ccc3nc(N4CCC5(CC4)CO[C@@H](C)[C@H]5N)cnc3n2)ccnc1N [Example 153, (3S,4S)-8-(6-((2-amino-3-methoxypyridin-4-yl)thio)pyrido[2,3-b]pyrazin-2-yl)-3-methyl-2-oxa-8-azaspiro [4.5] decan-4-amine] | 164 nM | 
6 | Nc1nccc(Sc2ccc3nc(N4CCC5(CC4)CNC5)cnc3n2)c1Cl [Example 54, 4-((2-(2,7-diazaspiro[3.5]nonan-7-yl)pyrido[2,3-b]pyrazin-6-yl)thio)-3-chloropyridin-2-amine] | 60 nM | 
7 | COc1cccc(-c2ccc3nc(N4CCC(C)(N)CC4)cnc3n2)c1Cl [Example 37, 1-(6-(2-chloro-3-methoxyphenyl)pyrido[2,3-b]pyrazin-2-yl)-4-methylpiperidin-4-amine] | 1100 nM | 
8 | CCCC1(N)CCN(c2cnc3nc(Sc4ccnc(N)c4Cl)ccc3n2)CC1 [Example 173, 4-((2-(4-amino-4-propylpiperidin-1-yl)pyrido[2,3-b]pyrazin-6-yl)thio)-3-chloropyridin-2-amine] | 237 nM | 
9 | C[C@@H]1OCC2(CCN(c3cnc4nc(-c5ccccc5)ccc4n3)CC2)[C@@H]1N [Example 66, (3S,4S)-3-methyl-8-(6-phenylpyrido[2,3-b]pyrazin-2-yl)-2-oxa-8-azaspiro[4.5]decan-4-amine] | 2750 nM | 
10 | C[C@@H]1OCC2(CCN(c3cnc4nc(Sc5cc(N)ncc5Cl)ccc4n3)CC2)[C@@H]1N [Example 144, (3S,4S)-8-(6-((2-amino-5-chloropyridin-4-yl)thio)pyrido[2,3-b]pyrazin-2-yl)-3-methyl-2-oxa-8-azaspiro[4,5]decan-4-amine] | 89 nM | 
11 | CC1(N)CCN(c2cnc3nc(-c4cccc(Cl)c4C(F)(F)F)ccc3n2)CC1 [Example 11, 1-(6-(3-chloro-2-(trifluoromethyl)phenyl)pyrido[2,3-b]pyrazin-2-yl)-4-methylpiperidin-4-amine] | 2300 nM | 
12 | Nc1nccc(Sc2ccc3nc(N4CCC5(CC4)Cc4cc(Cl)ccc4[C@@H]5N)cnc3n2)c1Cl [Example 170, (R)-1′-(6-((2-amino-3-chloropyridin-4-yl)thio)pyrido[2,3-b]pyrazin-2-yl)-5-chloro-1,3-dihydrospiro[indene-2,4′-piperidin]-1-amine] | 62 nM | 
13 | C[C@@H]1OCC2(CCN(c3cnc4nc(Sc5ncnc(N)c5Cl)ccc4n3)CC2)[C@@H]1N [Example 217, (3S,4S)-8-(6-((6-amino-5-chloropyrimidin-4-yl)thio)pyrido[2,3-b]pyrazin-2-yl)-3-methyl-2-oxa-8-azaspiro[4.5]decan-4-amine] | 845 nM | 
14 | C[C@@H]1OCC2(CCN(c3cnc4nc(Sc5ccnc(CO)c5Cl)ccc4n3)CC2)[C@@H]1N [Example 90, (4-((2-((3S,4S)-4-amino-3-methyl-2-oxa-8-azaspiro[4.5]decan-8-yl)pyrido[2,3-b]pyrazin-6-yl)thio)-3-chloropyridin-2-yl)methanol] | 183 nM | 
15 | NC1(CO)CCN(c2cnc3nc(Sc4ccnc(N5CCCC5)c4Cl)ccc3n2)CC1 [Example 45, (4-amino-1-(6-((3-chloro-2-(pyrrolidin-1-yl)pyridin-4-yl)thio)pyrido[2,3-b]pyrazin-2-yl)piperidin-4-yl)methanol] | 92 nM | 
16 | Nc1nccc(Sc2ccc3nc(N4CC[C@@H](N)[C@@H](O)C4)cnc3n2)c1Cl [Example 84, (3S,4R)-4-amino-1-(6-((2-amino-3-chloropyridin-4-yl)thio)pyrido[2,3-b]pyrazin-2-yl)piperidin-3-ol] | 102 nM | 

Row | Compound | IC50 | IC50 [1]
17 | Nc1nccc(Sc2ccc3nc(N4CCC(N)(CCO)CC4)cnc3n2)c1Cl [Example 128, 2-(4-amino-1-(6-((2-amino-3-chloropyridin-4-yl)thio)pyrido[2,3-b]pyrazin-2-yl)piperidin-4-yl)ethan-1-ol] | 100 nM | 
18 | C[C@@H]1C[C@@H](N)CCN1c1cnc2nc(Sc3ccnc(N)c3Cl)ccc2n1 [Example 122, 4-((2-((2R,4S)-4-amino-2-methylpiperidin-1-yl)pyrido[2,3-b]pyrazin-6-yl)thio)-3-chloropyridin-2-amine dihydrochloride] | 64 nM | 
19 | N[C@H]1C[C@@H]2CN(c3cnc4nc(Sc5cccc(Cl)c5Cl)ccc4n3)C[C@H]1O2 [Example 59, (1R,5R,6S)-3-(6-((2,3-dichlorophenyl)thio)pyrido[2,3-b]pyrazin-2-yl)-8-oxa-3-azabicyclo[3.2.1]octan-6-amine] | 405 nM | 
20 | CCC1(N)CCN(c2cnc3nc(Sc4ccnc(N)c4Cl)ccc3n2)CC1 [Example 130, 4-((2-(4-amino-4-ethylpiperidin-1-yl)pyrido[2,3-b]pyrazin-6-yl)thio)-3-chloropyridin-2-amine] | 96 nM | 
21 | COc1ccc2c(n1)CC1(CCN(c3cnc4nc(Sc5ccnc(N)c5Cl)ccc4n3)CC1)[C@H]2N (single isomer, unassigned) [Example 116] | 36 nM | 
22 | CC1(N)CCN(c2cnc3nc(Sc4ccc(N)nc4Cl)ccc3n2)CC1 [Example 97, 5-((2-(4-amino-4-methylpiperidin-1-yl)pyrido[2,3-b]pyrazin-6-yl)thio)-6-chloropyridin-2-amine] | 176 nM | 
23 | Nc1nccc(Sc2ccc3nc(N4[C@H]5CC[C@H]4CC(N)C5)cnc3n2)c1Cl (stereo partly drawn) [Example 52, (1R,3s,5S)-8-(6-((2-amino-3-chloropyridin-4-yl)thio)pyrido[2,3-b]pyrazin-2-yl)-8-azabicyclo[3.2.1]octan-3-amine] |  | 70 nM
24 | Nc1nccc(Sc2ccc3nc(N4C[C@H]5C[C@@H](C4)[C@H]5N)cnc3n2)c1Cl [Example 137] |  | 64 nM
25 | Nc1nccc(Sc2ccc3nc(N4CCC5(CC4)Cc4c(Cl)cccc4[C@H]5N)cnc3n2)c1Cl [Example 159, (S)-1′-(6-((2-amino-3-chloropyridin-4-yl)thio)pyrido[2,3-b]pyrazin-2-yl)-4-chloro-1,3-dihydrospiro[indene-2,4′-piperidin]-1-amine] | 50 nM | 
26 | Nc1nccc(Sc2ccc3nc(N4CCC(O)(CO)CC4)cnc3n2)c1Cl [Example 198, 1-(6-((2-amino-3-chloropyridin-4-yl)thio)pyrido[2,3-b]pyrazin-2-yl)-4-(hydroxymethyl)piperidin-4-ol] | 3990 nM | 
27 | COc1nccc(-c2ccc3nc(N4CCC5(CC4)CO[C@@H](C)[C@H]5N)cnc3n2)c1Cl [Example 21, (3S,4S)-8-(6-(3-chloro-2-methoxypyridin-4-yl)pyrido[2,3-b]pyrazin-2-yl)-3-methyl-2-oxa-8-azaspiro[4.5]decan-4-amine] | 5700 nM | 
28 | CC1(N)CCN(c2cnc3nc(-c4cccc(Cl)c4F)ccc3n2)CC1 [Example 16, 1-(6-(3-chloro-2-fluorophenyl)pyrido[2,3-b]pyrazin-2-yl)-4-methylpiperidin-4-amine] | 290 nM | 
29 | COCCNc1nccc(Sc2ccc3nc(N4CCC5(CC4)CO[C@@H](C)[C@H]5N)cnc3n2)c1Cl [Example 183, (3S,4S)-8-(6-((3-chloro-2-((2-methoxyethyl)amino)pyridin-4-yl)thio)pyrido[2,3-b]pyrazin-2-yl)-3-methyl-2-oxa-8-azaspiro[4.5]decan-4-amine] | 268 nM | 
30 | Nc1nccc(Sc2ccc3nc(N4CCC(N)(Cc5ccccn5)CC4)cnc3n2)c1Cl [Example 180, 4-((2-(4-amino-4-(pyridin-2-ylmethyl)piperidin-1-yl)pyrido[2,3-b]pyrazin-6-yl)thio)-3-chloropyridin-2-amine] | 274 nM | 
31 | Nc1nccc(Sc2ccc3nc(N4C5CCC4CNC5)cnc3n2)c1Cl [Example 204, 4-((2-(3,8-diazabicyclo[3.2.1]octan-8-yl)pyrido[2,3-b]pyrazin-6-yl)thio)-3-chloropyridin-2-amine] | 47 nM | 
32 | C[C@@H]1OCC2(CCN(c3cnc4nc(N5CCNc6ccccc65)ccc4n3)CC2)[C@@H]1N [Example 70, (3S,4S)-8-(6-(3,4-dihydroquinoxalin-1(2H)-yl)pyrido[2,3-b]pyrazin-2-yl)-3-methyl-2-oxa-8-azaspiro[4.5]decan-4-amine] | 5970 nM | 
